From article PMC5085131, “Cyclic AMP efflux inhibitors as potential therapeutic agents for leukemia” (Oncotarget, 2016)
Where two headings read alike, the source gives them in different places. One block for each compound: values may come before it.

Tests used:
B-ALL cell lines = assay: CellTiter-Glo cell viability, all B-ALL cell lines together; type: cell-based, human; settings: Homo sapiens; mean of converged EC50s of six B-ALL lines; read-out: Compound EC50, Mean B-ALL (cell viability)
Protocol: (§1) Cell viability was determined with the CellTiter-Glo® Luminescent Cell Viability Assay (Promega). Greiner 655083 had 100 μL cRPMI +/− 4×10^4 cells/well, and dose response curves of compounds ranged from 100 μM to 1.53 nM (1% DMSO). Wells with DMSO-only served as negative controls. Samples were incubated overnight, and the assay was completed according to the manufacturer's protocol. Plates were analyzed using a Victor^3V™ 1420 Multilabel Counter (Perkin Elmer).

[1] = parameters: method as in as printed in each cell; settings: previously reported; cited from earlier work
U937 cells = assay: MultiCyt 4-Plex apoptosis assay; type: cell-based, human; settings: for EC50: Homo sapiens, U-937, 24 h
Protocol: Apoptosis was determined using MultiCyt® 4-Plex Apoptosis Screening Kit (IntelliCyt, cat. 90053). The kit provides four different apoptosis endpoints that include effector caspases 3 and 7 activation, phosphatidylserine surface expression, mitochondrial membrane depolarization and cell membrane integrity. […] Cell membrane damage is detected by the uptake of a proprietary DNA intercalating agent analogous to 7-aminoactinomycin D.
384-well plates (Greiner 784201), pre-loaded with 5 μL cRPMI were stamped using a pintool with 100 nl of DMSO-solubilized compounds from the 100-fold concentrated stock solution. Next, 5 μL U937 cells (2 × 10^6/ml in cRPMI) were added to wells and mixed, and plates were foil-sealed. Compounds (Table 1) were tested in dose response at final concentrations ranging from 15.2 nM to 100 μM (1% DMSO final). Vehicle (DMSO) was used as a negative control. After 24 h incubation under culture conditions, the IntelliCyt MultiCyt 4-Plex Apoptosis Screening Kit was used according to manufacturer's protocol. The data were acquired using iQue Screener Platform (IntelliCyt). Singlet cell populations were analyzed for individual measures of apoptosis, and gates were set based on control histograms.

[2] = test system: primary B-ALL patient samples; assay: CellTiter-Glo cell viability of primary ALL patient samples ex vivo; type: cell-based, human; settings: for EC50: Homo sapiens; for Cell viability vs. vehicle treated sample at lower concentrations: samples from patients no. 1 and no. 5
Protocol: Bone marrow samples were acquired at diagnosis from pediatric B-ALL patients. Mononuclear cells were enriched by centrifugation in Ficoll-Paque (GE Healthcare, cat. 17-1440-02) and aliquoted for storage in liquid nitrogen until use. Samples were thawed in a 37°C water bath, resuspended in 20% FBS cRPMI, and centrifuged to remove freezing medium. Cells were resuspended in conditioned medium (DMEM, 10% FBS, 50 U/ml penicillin-streptomycin, 2 mM L-glutamine) from HS-5 stromal cell cultures.
as §1
For primary ALL patient samples, media consisted of 50% cRPMI, 50% conditioned DMEM from HS-5 stromal cell cultures and compounds. Cell densities ranged from 28,000-68,000 cells/well, and plates were foil-sealed prior to incubation.

normal human PBMCs = assay: CellTiter-Glo cell viability; type: cell-based; settings: PBMC, overnight, n = 6, ± SEM, read-out: Compound EC50, PBMCs (cell viability)
Protocol: Healthy PBMCs were obtained from volunteers. Mononuclear cells were purified using Mono-Poly resolving medium (MP Biomedicals, cat. 091698049) according to manufacturer's instructions. PBMCs were resuspended in cRPMI and kept on ice prior to use.
as §1

VLA-4 = assay: Kinetic analysis of VLA-4 deactivation (LDV-FITC dissociation) in U937 cells with non-desensitizing FPR1 mutant; type: cell-based, human; settings: U937 cells pre-activated through FPR1 mutant, 40 μM, 37°C
Protocol: Kinetic analysis of the binding and dissociation of the LDV-FITC probe was described previously. Briefly, flow cytometric data were acquired at 37°C while the samples were stirred continuously with a stir bar (Bel-Art Products). First, U937 cells transfected with a non-desensitizing mutant of the Formyl Peptide Receptor FPR1 [43] were analyzed for 30-120 s to establish a baseline. The FPR1 mutant triggers VLA-4 activation, which persists for hundreds of seconds, allowing for integrin deactivation to be detected. Next, the LDV-FITC was added and acquisition was re-established. […] Finally, 40 μM of ICE, forskolin (positive control) or vehicle (negative control) were added. Acquisition was re-established, and data were acquired continuously for up to 1024 s.
Therefore, the transition from low to high affinity state led to increased binding of the probe. This was detected as an increase in the median fluorescence intensity (MFI). VLA-4 deactivation led to the dissociation of the probe and decreased MFI [21].

[3] = mean of converged EC50s, read-out: Compound EC50, Means (of the apoptosis endpoints)
[4] = n = 4, ± SEM, read-out: Compound EC50, Active Caspase 3/7 +
[5] = n = 4, ± SEM, read-out: Compound EC50, Annexin-V +
[6] = n = 4, ± SEM, read-out: Compound EC50, Cell membrane damage
[7] = n = 4, ± SEM, read-out: Compound EC50, Mitochondrial depolarization
[8] = mean of converged EC50s of six patient samples, read-out: Compound EC50 (Sample means), cell viability
[9] = primary B-ALL sample, duplicate, ± SEM, read-out: Compound EC50 (Patient no. 1), cell viability
[10] = primary B-ALL sample, duplicate, ± SEM, read-out: Compound EC50 (Patient no. 2), cell viability
[11] = primary B-ALL sample, duplicate, ± SEM, read-out: Compound EC50 (Patient no. 3), cell viability
[12] = primary B-ALL sample, duplicate, ± SEM, read-out: Compound EC50 (Patient no. 5), cell viability
[13] = even at the highest ICE concentrations
[14] = primary B-ALL sample, duplicate, ± SEM, read-out: Compound EC50 (Patient no. 4), cell viability
[15] = primary B-ALL sample, duplicate, ± SEM, read-out: Compound EC50 (Patient no. 6), cell viability

SMILES: O=C1C=C2C(=CCOC2O)O1 (stereo not drawn) [Patulin]
EC50 (B-ALL cell lines): 0.38 µM
Anticancer effects [1]: ↓ERK1/2 activation [52, 133]; ↑UPR[52, 133]; ↑intracellular [Ca2+] [134]
Potential mechanism(s) of action [1]: ↑ROS, DNA damage [57, 59, 132, 133, 135]; ↓glutathione [133, 135]
EC50 (U937 cells; [3]): 4.95 µM
EC50 (U937 cells; [4]): 12.8 ± 0.09 µM
EC50 (U937 cells; [5]): 3.75 ± 0.63 µM
EC50 (U937 cells; [6]): 1.54 ± 0.02 µM
EC50 (U937 cells; [7]): 1.72 ± 0.94 µM
EC50 [2, 8]: 7.36 µM
EC50 [2, 9]: 1.79 ± 1.75 µM
EC50 [2, 10]: 4.72 ± 2.1 µM
EC50 [2, 11]: 0.4 ± 0.29 µM
EC50 [2, 12]: 22.5 ± 11.8 µM
EC50 (normal human PBMCs): 246 ± 181 µM
VLA-4 deactivation (dissociation of LDV-FITC) (VLA-4): exceeded the effects of the positive control, forskolin

SMILES: C[C@H]1COC2=C1C(=O)C(=O)c1c2ccc2c1CCCC2(C)C [Cryptotanshinone]
EC50 (B-ALL cell lines): 67.7 µM
Anticancer effects [1]: ↓cyclin D1, Bcl-2 [47, 115, 116]; ↑p53, Chk1, Chk2 [120]
Potential mechanism(s) of action [1]: ↓mTOR, STAT3 signaling [116, 117]; ↓eIF-4E [47]
EC50 (U937 cells; [3]): 25.8 µM
EC50 (U937 cells; [6]): 30.7 ± 6.83 µM
EC50 (U937 cells; [7]): 20.9 ± 6.96 µM
Effect on annexin-V binding (U937 cells; [13]): very small effect
Effect on caspase activation (U937 cells; [13]): very small effect
EC50 [2, 8]: 19.1 µM
EC50 [2, 9]: 12.9 ± 5.51 µM
EC50 [2, 10]: 29.8 ± 8.97 µM
EC50 [2, 11]: 14 ± 9.8 µM
EC50 [2, 14]: 34.4 ± 5.79 µM
EC50 [2, 12]: 6.88 ± 2.89 µM
EC50 [2, 15]: 16.6 ± 5.55 µM
EC50 (normal human PBMCs): 11.8 ± 3.11 µM
VLA-4 deactivation (dissociation of LDV-FITC) (VLA-4): rapid and reversible VLA-4 deactivation

EC50 (U937 cells; [3]): 7.44 µM
EC50 (U937 cells; [4]): 12.4 ± 2.51 µM
EC50 (U937 cells; [5]): 7.55 ± 1.18 µM
EC50 (U937 cells; [7]): 5.52 ± 1.02 µM
SMILES: C=C1C(=O)O[C@H]2[C@H]1CC/C(C)=C/CC[C@@]1(C)O[C@@H]21 [Parthenolide]
EC50 (B-ALL cell lines): 1.77 µM
Anticancer effects [1]: ↓VEGF expression & metastasis [61, 124, 125]; ↑p53 activation [48]; ↓cyclin D1 [61, 122]
Potential mechanism(s) of action [1]: ↓NF-κB & AP-1 activation [48, 61, 124, 126, 127]; ↓MAPK/ERK signaling [126, 127]; ↓STAT signaling [128]; ↑ROS[48, 65, 128]
EC50 (U937 cells; [6]): 4.34 ± 0.9 µM
EC50 [2, 8]: 3.15 µM
EC50 [2, 9]: 4.72 ± 3.71 µM
EC50 [2, 10]: 3.65 ± 1.73 µM
EC50 [2, 11]: 3.17 ± 1.44 µM
EC50 [2, 14]: 4.13 ± 1.92 µM
EC50 [2, 12]: 0.92 ± 0.58 µM
EC50 [2, 15]: 2.31 ± 0.78 µM
Cell viability vs. vehicle treated sample at lower concentrations [2]: significant increase in cell viability
EC50 (normal human PBMCs): 56 ± 23.3 µM
VLA-4 deactivation (dissociation of LDV-FITC) (VLA-4): exceeded the effects of the positive control, forskolin

EC50 (U937 cells; [3]): 26.7 µM
EC50 (U937 cells; [5]): 51.1 ± 26.2 µM
EC50 (U937 cells; [7]): 17.9 ± 2.3 µM
SMILES: Oc1c(I)cc(Cl)c2cccnc12 [Clioquinol]
EC50 (B-ALL cell lines): 35.2 µM
Anticancer effects [1]: ↓cyclin D1 [110]; ↑p21, p27, p53 [106]
Potential mechanism(s) of action [1]: ↓NF-κB activation [108, 112]; ionophore/chelator activity [106, 108, 112]; proteasome inhibition [107, 109]
EC50 (U937 cells; [6]): 11.1 ± 0.48 µM
EC50 [2, 8]: 58.8 µM
EC50 [2, 9]: 60.1 ± 53.5 µM
EC50 [2, 10]: 158 ± 84.5 µM
EC50 [2, 11]: 8.67 ± 4.84 µM
EC50 [2, 14]: 48 ± 22.9 µM
EC50 [2, 12]: 13.8 ± 5.23 µM
EC50 [2, 15]: 63.9 ± 41.1 µM
Cell viability vs. vehicle treated sample at lower concentrations [2]: significant increase in cell viability
EC50 (normal human PBMCs): 87.8 ± 46.8 µM
